# Results taken from patent US10167279B2 (NOVARTIS AG, priority 2014, dated 2019).
# Target: C-Raf FL (Homo sapiens (Human), UniProt P04049, Y340E/Y341E)
# Assay: In vitro Raf activity determination (Alpha Screen, phospho-MEK), C-Raf FL (full length, Y340E/Y341E)
# Assay type: biochemical
# Details: ATP 1 μM; 60 min pre-incubation; 1 hour reaction; column head does not say FL or TR
# Method in brief: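 Sf9-expressed C-Raf incubated with biotinylated kinase-dead MEK1 (K97R) in 50 mM Tris pH 7.5, 15 mM MgCl2, 0.01% BSA, 1 mM DTT with compound, 60 min at room temperature. Phospho-MEK detected by anti-p-MEK AlphaScreen luminescence; IC50 by non-linear regression.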
# Sequence of C-Raf FL (P04049 whole entry Y340E/Y341E): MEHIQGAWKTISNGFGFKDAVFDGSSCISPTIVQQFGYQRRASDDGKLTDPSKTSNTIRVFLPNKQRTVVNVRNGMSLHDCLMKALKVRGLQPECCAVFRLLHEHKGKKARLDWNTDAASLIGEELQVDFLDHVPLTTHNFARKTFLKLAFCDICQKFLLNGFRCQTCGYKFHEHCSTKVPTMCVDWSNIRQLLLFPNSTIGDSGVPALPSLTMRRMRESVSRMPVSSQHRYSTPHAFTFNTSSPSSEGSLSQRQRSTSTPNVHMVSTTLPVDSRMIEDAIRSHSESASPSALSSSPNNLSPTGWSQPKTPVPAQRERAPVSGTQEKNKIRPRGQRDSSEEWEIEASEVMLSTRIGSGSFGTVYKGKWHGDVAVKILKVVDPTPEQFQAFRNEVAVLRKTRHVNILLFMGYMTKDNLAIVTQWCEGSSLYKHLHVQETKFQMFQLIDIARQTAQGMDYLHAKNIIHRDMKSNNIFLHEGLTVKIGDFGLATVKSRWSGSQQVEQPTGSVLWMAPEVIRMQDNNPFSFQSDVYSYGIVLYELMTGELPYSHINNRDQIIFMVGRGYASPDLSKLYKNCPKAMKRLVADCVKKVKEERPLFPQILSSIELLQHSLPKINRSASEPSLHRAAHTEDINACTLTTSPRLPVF
# Sequence of C-Raf FL (P63104 whole entry partner): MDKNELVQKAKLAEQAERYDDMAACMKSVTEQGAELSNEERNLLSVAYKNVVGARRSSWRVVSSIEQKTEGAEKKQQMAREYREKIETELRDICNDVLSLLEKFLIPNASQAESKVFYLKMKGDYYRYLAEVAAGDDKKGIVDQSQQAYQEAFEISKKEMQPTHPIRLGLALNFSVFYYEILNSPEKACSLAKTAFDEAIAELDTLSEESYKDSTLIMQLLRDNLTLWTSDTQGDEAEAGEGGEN
row,SMILES,IC50
1,"CCOc1nnc(-c2cc(NC(=O)c3cc(C(F)(F)F)cnn3)ccc2C)cc1C1CCOCC1 [Example 240, N-(3-(6-ethoxy-5-(tetrahydro-2H-pyran-4-yl)pyridazin-3-yl)-4-methylphenyl)-5-(trifluoromethyl) pyridazine-3-carboxamide]",0.04 nM
2,"CCOc1nnc(-c2cc(NC(=O)c3cnc(N4CCN(CC)CC4)c(C(F)(F)F)c3)ccc2C)cc1C1CCOCC1 [Example 241, N-(3-(6-ethoxy-5-(tetrahydro-2H-pyran-4-yl)pyridazin-3-yl)-4-methylphenyl)-6-(4-ethylpiperazin-1-yl)-5-(trifluoromethyl) nicotinamide]",0.1 nM
3,"Cc1ccc(NC(=O)c2ccnc(C(F)(F)F)c2)cc1-c1cc2c(c(C3CCOCC3)c1)NC(=O)C(C)(CO)O2 (centres unmarked) [Example 242, N-(3-(2-(hydroxymethyl)-2-methyl-3-oxo-5-(tetrahydro-2H-pyran-4-yl)-3,4-dihydro-2H-benzo[b][1,4]oxazin-7-yl)-4-methylphenyl)-2-(trifluoromethyl) isonicotinamide]",0.1 nM
4,"Cc1ccc(NC(=O)c2ccnc(C(C)(F)F)c2)cc1-c1cc(OCCO)nc(C2CCOCC2O)c1 (centres unmarked) [Example 243, 2-(1,1-difluoroethyl)-N-(3-(2-(2-hydroxyethoxy)-6-(3-hydroxytetrahydro-2H-pyran-4-yl)pyridin-4-yl)-4-methylphenyl) isonicotinamide]",1 nM
5,"Cc1ccc(NC(=O)c2ccnc(C(C)(C)F)c2)cc1-c1cc(OCCO)nc(C2CCOCC2O)c1 (centres unmarked) [Example 244, 2-(2-fluoropropan-2-yl)-N-(3-(2-(2-hydroxyethoxy)-6-(3-hydroxytetrahydro-2H-pyran-4-yl)pyridin-4-yl)-4-methylphenyl) isonicotinamide]",3 nM
6,Cc1ccc(NC(=O)c2cnnc(C(F)(F)F)c2)cc1-c1cc(OCCO)nc(C2CCOCC2O)c1 (centres unmarked) [Example 245],1 nM
7,Cc1ccc(NC(=O)c2ccnc(C(C)(C)C#N)c2)cc1-c1cc(OCCO)nc(C2CCOCC2O)c1 (centres unmarked) [Example 246],6 nM
8,Cc1ccc(NC(=O)c2cc(C(F)(F)F)ccn2)cc1-c1cc(OCCO)nc(C2CCOCC2O)c1 (centres unmarked) [Example 247],0.4 nM
9,"Cc1ccc(NC(=O)c2cc(C(F)(F)F)c[nH]c2=O)cc1-c1cc(OCCO)nc(C2CCOCC2)c1 [Example 252, N-(3-(2-(2-hydroxyethoxy)-6-(terahydro-2H-pyran-4-yl)pyridin-4-yl)-4-methylphenyl)-2-oxo-5-(trifluoromethyl)-1,2-dihydropyridine-3-carboxamide]",4 nM
10,"Cc1ccc(NC(=O)c2cc(C(F)(F)F)cn(C)c2=O)cc1-c1cc(OCCO)nc(C2CCOCC2)c1 [Example 253, N-(3-(2-(2-hydroxyethoxy)-6-(terahydro-2H-pyran-4-yl)pyridin-4-yl)-4-methylphenyl)-1-methyl-2-oxo-5-(trifluoromethyl)-1,2-dihydropyridine-3-carboxamide]",0.1 nM
11,"Cc1ccc(NC(=O)c2ccnc(C(F)(F)F)n2)cc1-c1cc(OCCO)nc(C2CCOCC2)c1 [Example 254, N-(3-(2-(2-hydroxyethoxy)-6-(terahydro-2H-pyran-4-yl)pyridin-4-yl)-4-methylphenyl)-2-(trifluoromethyl) pyrimidine-4-carboxamide]",0.3 nM
12,"Cc1ccc(NC(=O)c2cc3cnccc3nc2C(F)(F)F)cc1-c1cc(OCCO)nc(C2CCOCC2)c1 [Example 255, N-(3-(2-(2-hydroxyethoxy)-6-(terahydro-2H-pyran-4-yl)pyridin-4-yl)-4-methylphenyl)-2-(trifluoromethyl)-1,6-naphthyridine-3-carboxamide]",0.2 nM
13,"Cc1ccc(NC(=O)c2cc(C(C)(C)C)nc(O)n2)cc1-c1cc(OCCO)nc(C2CCOCC2)c1 [Example 256, 6-(tert-butyl)-2-hydroxy-N-(3-(2-(2-hydroxyethoxy)-6-(tetrahydro-2H-pyran-4-yl)pyridin-4-yl)-4-methylphenyl)pyrimidine-4-carboxamide]",0.1 nM
14,"Cc1ccc(NC(=O)c2cc(C(F)(F)F)nc(N(C)C)n2)cc1-c1cc(OCCO)nc(C2CCOCC2)c1 [Example 257, 2-(dimethylamino)-N-(3-(2-(2-hydroxyethoxy)-6-(tetrahydro-2H-pyran-4-yl)pyridin-4-yl)-4-methylphenyl)-6-(trifluoromethyl) pyrimidine-4-carboxamide]",1 nM

# Further lines, results first:
row,IC50,SMILES
1,0.02 nM,"Cc1ccc(NC(=O)c2cc(C(F)(F)F)cnn2)cc1-c1cc(OCCO)nc(C2CCOCC2)c1 [Example 258, N-(3-(2-(2-hydroxyethoxy)-6-(tetrahydro-2H-pyran-4-yl)pyridin-4-yl)-4-methylphenyl)-5-(trifluoromethyl) pyridazine-3-carboxamide]"
2,0.3 nM,"Cc1ccc(NC(=O)c2ccnc(C3(C(F)(F)F)CC3)c2)cc1-c1cc(OCCO)nc(C2CCOCC2)c1 [Example 259, N-(3-(2-(2-hydroxyethoxy)-6-(tetrahydro-2H-pyran-4-yl)pyridin-4-yl)-4-methylphenyl)-2-(1-(trifluoromethyl)cyclopropyl) isonicotinamide]"
3,0.08 nM,"Cc1ccc(NC(=O)c2cc(C(F)(F)F)ncn2)cc1-c1cc(OCCO)nc(C2CCOCC2)c1 [Example 260, N-(3-(2-(2-hydroxyethoxy)-6-(tetrahydro-2H-pyran-4-yl)pyridin-4-yl)-4-methylphenyl)-6-(trifluoromethyl) pyrimidine-4-carboxamide]"
4,0.03 nM,"Cc1ccc(NC(=O)c2cc(Cl)ccn2)cc1-c1cc(OCCO)nc(C2CCOCC2)c1 [Example 261, 4-chloro-N-(3-(2-(2-hydroxyethoxy)-6-(tetrahydro-2H-pyran-4-yl)pyridin-4-yl)-4-methylphenyl) picolinamide]"
5,1 nM,"Cc1ccc(NC(=O)c2cnc(C(F)(F)F)cn2)cc1-c1cc(OCCO)nc(C2CCOCC2)c1 [Example 262, N-(3-(2-(2-hydroxyethoxy)-6-(tetrahydro-2H-pyran-4-yl)pyridin-4-yl)-4-methylphenyl)-5-(trifluoromethyl) pyrazine-2-carboxamide]"
6,0.2 nM,"Cc1ccc(NC(=O)c2ccnc(C#N)c2)cc1-c1cc(OCCO)nc(C2CCOCC2)c1 [Example 263, 2-cyano-N-(3-(2-(2-hydroxyethoxy)-6-(tetrahydro-2H-pyran-4-yl)pyridin-4-yl)-4-methylphenyl) isonicotinamide]"
7,0.2 nM,"Cc1ccc(NC(=O)c2ccnc(Cl)c2)cc1-c1cc(OCCO)nc(C2CCOCC2)c1 [Example 264, 2-chloro-N-(3-(2-(2-hydroxyethoxy)-6-(tetrahydro-2H-pyran-4-yl)pyridin-4-yl)-4-methylphenyl) isonicotinamide]"
8,0.1 nM,"Cc1ccc(NC(=O)c2cncc(C(F)(F)F)c2)cc1-c1cc(OCCO)nc(C2CCOCC2)c1 [Example 265, N-(3-(2-(2-hydroxyethoxy)-6-(tetrahydro-2H-pyran-4-yl)pyridin-4-yl)-4-methylphenyl)-5-(trifluoromethyl) nicotinamide]"
9,2 nM,"Cc1ccc(NC(=O)c2cc(C(F)(F)F)c(Cl)cn2)cc1-c1cc(OCCO)nc(C2CCOCC2)c1 [Example 266, 5-chloro-N-(3-(2-(2-hydroxyethoxy)-6-(tetrahydro-2H-pyran-4-yl)pyridin-4-yl)-4-methylphenyl)-4-(trifluoromethyl) picolinamide]"
